Tests used:
[1] = test system: Escherichia coli (ATCC No. 8739); assay: USP 51 Preservative Challenge Test, E. coli; type: cell-based; settings: E. coli ATCC 8739, 82 mg/mL solution in water
Experimental: (§1) In order to assess the anti-microbial properties of Alpha-1062, the USP (US Pharmacopeia) Chapter 51 Preservative Challenge Test (USP 51) was employed. The USP 51 is a common method used to gauge preservative effectiveness. Much like a Preservative Challenge Screen, it is used to evaluate the effect of preservatives in cosmetics, personal care products, and drug products. Preservatives are typically antimicrobial ingredients that are added to aqueous product formulations to help maintain the safety of the product by inhibiting the growth and reducing the number of microbial contaminants.
(§2) In the context of the present invention, Alpha-1062 (in the form of the gluconate salt) was assessed in place of (as) a preservative. No additional preservative was added to the Alpha-1062 gluconate preparation, rather an anti-microbial effect of the agent itself (Alpha-1062) was assessed. Alpha-1062 is therefore the anti-microbial agent in the assay and experiments described below.
(§3) Cultures of the following microorganisms were applied, as per standard guidelines for USP 51: • Candida albicans (ATCC No. 10231), • Aspergillus brasiliensis (ATCC No. 16404), • Escherichia coli (ATCC No. 8739), • Pseudomonas aeruginosa (ATCC No. 9027), and • Staphylococcus aureus (ATCC No. 6538). […]
(§4) The inoculated containers were incubated at 22.5±2.5° C. and each container was sampled at the appropriate intervals, as specified in Table 3. Any changes observed in the appearance of the culture was recorded at these intervals. By using the plate-count procedure, the number of CFU present in each test preparation was determined for the applicable intervals.
(§5) An inactivator (neutralizer) of the specific antimicrobial was incorporated in the plate count or in the appropriate dilution prepared for plating. These conditions were determined in the validation study for that sample based upon the conditions of media and microbial recovery incubation times listed in Table 2. Using the calculated concentrations of CFU per mL present at the start of the test, the change in log 10 values of the concentration of CFU per mL for each microorganism was calculated at the applicable test intervals, and the changes were expressed in terms of log reductions.
(§6) The requirements for antimicrobial effectiveness are met if the criteria specified under Table 3 are met. No increase is defined as not more than 0.5 log 10 unit higher than the previous value measured. […]
(§7) The USP Criteria for Category 2 were employed in order to determine the presence of an anti-microbial effect. […] For yeast and molds, an antimicrobial effect is evident when no increase from the initial calculated count is determined at 14 and 28 days.

[2] = test system: Pseudomonas aeruginosa (ATCC No. 9027); assay: USP 51 Preservative Challenge Test, P. aeruginosa; type: cell-based; settings: P. aeruginosa ATCC 9027, 82 mg/mL solution in water
Experimental: as §1, §2, §3, §4, §5, §6, §7

[3] = test system: Staphylococcus aureus (ATCC No. 6538); assay: USP 51 Preservative Challenge Test, S. aureus; type: cell-based; settings: S. aureus ATCC 6538, 82 mg/mL solution in water
Experimental: as §1, §2, §3, §4, §5, §6, §7

[4] = test system: Candida albicans (ATCC No. 10231); assay: USP 51 Preservative Challenge Test, C. albicans; type: cell-based; settings: C. albicans ATCC 10231, 82 mg/mL solution in water
Experimental: as §1, §2, §3, §4, §5, §6, §7

[5] = test system: Aspergillus brasiliensis (ATCC No. 16404); assay: USP 51 Preservative Challenge Test, A. brasiliensis; type: cell-based; settings: A. brasiliensis ATCC 16404, 82 mg/mL solution in water
Experimental: as §1, §2, §3, §4, §5, §6, §7

[6] = test system: all 5 organisms tested in the USP 51; assay: USP 51 test, overall assessment against Category 2 criteria; type: cell-based; settings: 82 mg/mL solution in water, USP Criteria for Category 2
Experimental: as §1
In the context of the present invention, Alpha-1062 (in the form of the gluconate salt) was assessed in place of (as) a preservative. No additional preservative was added to the Alpha-1062 gluconate preparation, rather an anti-microbial effect of the agent itself (Alpha-1062) was assessed. […]
as §6, §7

[7] = salts described in WO 2014/016430; cited from earlier work
[8] = Day 14, log10 reduction from initial count
[9] = Day 28, log10 reduction from initial count

**Q.** Which “CFU/mL Day 14” value ([1]; Day 14, 22.5±2.5° C., initial 9.1 × 10^5 CFU/mL) does the source give for `COc1ccc2c3c1O[C@H]1C[C@@H](OC(=O)c4ccccc4)C=C[C@@]31CCN(C)C2` [Alpha-1062 Gluconate] here?
**A.** The value was less than 10 CFU/mL.

**Q.** What about the “Log Reduction Day 14” value [1, 8] of the same compound?
**A.** Its value is 5.0.

**Q.** And the “CFU/mL Day 28” value ([1]; Day 28, initial 9.1 × 10^5 CFU/mL)?
**A.** The value was less than 10 CFU/mL.

**Q.** And the “Log Reduction Day 28” value [1, 9]?
**A.** Its value is 5.0.

**Q.** And the “CFU/mL Day 14” value ([2]; Day 14, initial 2.9 × 10^5 CFU/mL)?
**A.** Its value is less than 10 CFU/mL.

**Q.** And the “Log Reduction Day 14” value [2, 8]?
**A.** Its value is 4.5.

**Q.** And the “CFU/mL Day 28” value ([2]; Day 28, initial 2.9 × 10^5 CFU/mL)?
**A.** Its value is less than 10 CFU/mL.

**Q.** What about the “Log Reduction Day 28” value [2, 9] of the same compound?
**A.** The value was 4.5.

**Q.** What about the “CFU/mL Day 14” value ([3]; Day 14, initial 4.0 × 10^5 CFU/mL) of the same compound?
**A.** The value was less than 10 CFU/mL.

**Q.** And the “Log Reduction Day 14” value [3, 8]?
**A.** The value was 4.6.

**Q.** What about the “CFU/mL Day 28” value ([3]; Day 28, initial 4.0 × 10^5 CFU/mL) of the same compound?
**A.** Its value is less than 10 CFU/mL.

**Q.** What about the “Log Reduction Day 28” value [3, 9] of the same compound?
**A.** The value was 4.6.

**Q.** What about the “CFU/mL Day 14” value ([4]; Day 14, initial 6.7 × 10^5 CFU/mL) of the same compound?
**A.** Its value is less than 10 CFU/mL.

**Q.** What about the “Log Reduction Day 14” value [4, 8] of the same compound?
**A.** The value was 4.8.

**Q.** And the “CFU/mL Day 28” value ([4]; Day 28, initial 6.7 × 10^5 CFU/mL)?
**A.** The value was less than 10 CFU/mL.

**Q.** And the “Log Reduction Day 28” value [4, 9]?
**A.** Its value is 4.8.

**Q.** What about the “CFU/mL Day 14” value ([5]; Day 14, initial 2.2 × 10^5 CFU/mL) of the same compound?
**A.** Its value is 1.6 × 10^2 CFU/mL.

**Q.** What about the “Log Reduction Day 14” value [5, 8] of the same compound?
**A.** Its value is 3.1.

**Q.** What about the “CFU/mL Day 28” value ([5]; Day 28, initial 2.2 × 10^5 CFU/mL) of the same compound?
**A.** The value was 1.5 × 10^2 CFU/mL.

**Q.** What about the “Log Reduction Day 28” value [5, 9] of the same compound?
**A.** The value was 3.1.

**Q.** And the “anti-microbial effect in the USP 51” value [6]?
**A.** Its value is “strong anti-microbial effect”.

**Q.** And the solubility in water [7]?
**A.** Its solubility in water is “above 10 % weight per volume (w/v)”.
